# Source: article PMC4594923, “Food Polyphenols Fail to Cause a Biologically Relevant Reduction of COX-2 Activity” (PLoS ONE, 2015)
# Marks after values point to notes of the source that are not given here.
# How the values were obtained:
# ovine recombinant COX–1 = biological target: T1, ovine recombinant COX–1 (Ovis aries, UniProt P05979); test: cell-free COX–1 enzyme assay (PGE2 formation, LC-MS); format: biochemical; parameters: purchased Cayman Chemicals/ Biomol, Hamburg, Germany
# T1 sequence (P05979 25-600): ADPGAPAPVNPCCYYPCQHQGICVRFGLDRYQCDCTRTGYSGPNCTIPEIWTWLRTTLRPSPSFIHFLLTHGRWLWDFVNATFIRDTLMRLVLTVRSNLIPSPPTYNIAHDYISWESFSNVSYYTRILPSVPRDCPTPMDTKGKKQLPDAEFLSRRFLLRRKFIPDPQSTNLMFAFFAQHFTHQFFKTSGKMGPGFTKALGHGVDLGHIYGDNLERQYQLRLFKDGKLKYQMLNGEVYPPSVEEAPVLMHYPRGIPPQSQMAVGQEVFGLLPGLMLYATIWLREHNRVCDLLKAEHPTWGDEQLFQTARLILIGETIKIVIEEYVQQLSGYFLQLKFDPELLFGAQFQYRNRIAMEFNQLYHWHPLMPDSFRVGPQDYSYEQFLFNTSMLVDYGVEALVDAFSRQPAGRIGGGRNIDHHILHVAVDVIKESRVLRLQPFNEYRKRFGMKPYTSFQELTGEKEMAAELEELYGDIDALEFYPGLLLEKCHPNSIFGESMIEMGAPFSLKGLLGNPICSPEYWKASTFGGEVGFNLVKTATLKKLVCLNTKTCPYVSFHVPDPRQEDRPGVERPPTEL
# Procedure: The in vitro assays were performed as described [6, 16, 18] and COX metabolites were quantified by LC-MS [18].
# Primary human monocytes were freshly isolated from human blood. Blood was collected from healthy human subjects after written informed consent was obtained. […] After 24 h, the supernatant was sampled for LC-MS and cells were collected for the COX–2 expression analysis by Western Blotting.
# GraphPad Prism 5.0 (GraphPad Software, San Diego, USA) was used for data analysis, the fitting of dose response curves and calculation of the IC50 values. Statistical differences were determined by Dunnetts test (LPS vs. other groups).
# [1] = tested on: arachidonic acid (AA) cascade; test: kidney tissue oxylipin/PG levels in LPS induced sepsis in mice; conditions: kidney tissue 24 h after LPS treatment, LPS +, mean; for 5,6-DiHETE / 5-iPF2α / 8(9)-EpETE / 12,13-DiHODE / 13,14-dihydro-15-keto-PGE1 / 20-HETE / PGD1: < = below LOQ;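 for all read-outs here: male C57BL/6N mice challenged with LPS, kidney taken 24 h later, oxylipins quantified by LC-MS after solid-phase extraction of tissue homogenate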
smiles,measurement,setting,value
"O=c1c(-c2ccc(O)cc2)coc2cc(O)cc(O)c12 [Genistein, genistein]","effect on COX–1 dependent PGE2 formation, cell-free enzyme assay",ovine recombinant COX–1,no effect
same,"IC50 (95% CI), COX–1 enzyme assay","ovine recombinant COX–1; calculated based on PGE2, n = 3",no effect (up to 30 μM)
same,"1a,1b-dihomo-PGF2α",[1],1.9 nM
same,"4,5-DiHDPE",[1],15 nM
same,4-HDHA,[1],28^† nM
same,5(6)-EpETrE,[1],140^† nM
same,"5,6-DiHETrE",[1],1.8^† nM
same,5-HEPE,[1],1.3 nM
same,5-HETE,[1],15^† nM
same,5-oxo-ETE,[1],45 nM
same,6-keto-PGF1α,[1],61 nM
same,"7,8-DiHDPE",[1],2.0^* nM
same,7-HDHA,[1],4.0^* nM
same,8(9)-EpETrE,[1],34^‡ nM
same,"8,9-DiHETrE",[1],1.9 nM
same,8-HDHA,[1],23^‡ nM
same,8-HETE,[1],4.9 nM
same,8-iPF2a,[1],2.0 nM
same,9(10)-EpODE,[1],14 nM
same,9(10)-EpOME,[1],170^* nM
same,9(10)-Epoxystearic acid,[1],75^* nM
same,"9,10,13-TriHOME",[1],4.3 nM
same,"9,10-DiHODE",[1],1.6 nM
same,"9,10-DiHOME",[1],31 nM
same,"9,10-Dihydroxystearic acid",[1],50 nM
same,"9,12,13-TriHOME",[1],24 nM
same,9-HETE,[1],4.3^† nM
same,9-HODE,[1],280 nM
same,9-HOTrE,[1],5.0 nM
same,9-oxo-ODE,[1],65 nM
same,10(11)-EpDPE,[1],71^† nM
same,"10,11-DiHDPE",[1],2.4 nM
same,10-HDHA,[1],4.3 nM
same,11(12)-EpETE,[1],4.0 nM
same,11(12)-EpETrE,[1],82^† nM
same,"11,12-DiHETrE",[1],2.8 nM
same,11-HDHA,[1],7.7^† nM
same,11-HETE,[1],18 nM
same,12(13)-EpODE,[1],8.1^* nM
same,12(13)-EpOME,[1],120^* nM
same,"12,13-DiHOME",[1],78 nM
same,12-HEPE,[1],2.2 nM
same,12-HETE,[1],21 nM
same,13(14)-EpDPE,[1],56^† nM
same,"13,14-DiHDPE",[1],5.0 nM
same,"13,14-dihydro-15-keto-PGF2α",[1],3.1 nM
same,13-HDHA,[1],9.1^* nM
same,13-HODE,[1],230 nM
same,13-HOTrE,[1],6.0 nM
same,13-oxo-ODE,[1],11 nM
same,14(15)-EpETE,[1],4.7^† nM
same,14(15)-EpETrE,[1],57^* nM
same,"14,15-DiHETE",[1],1.1 nM
same,"14,15-DiHETrE",[1],8.5 nM
same,14-HDHA,[1],14 nM
same,15(16)-EpODE,[1],56^† nM
same,15(S)-HETrE,[1],6.4 nM
same,"15,16-DiHODE",[1],26 nM
same,15-HETE,[1],31^* nM
same,15-oxo-ETE,[1],12^* nM
same,16(17)-EpDPE,[1],52^† nM
same,"16,17-DiHDPE",[1],15 nM
same,16-HDHA,[1],9.1 nM
same,17(18)-EpETE,[1],5.7^† nM
same,"17,18-DiHETE",[1],4.4 nM
same,17-HDHA,[1],22 nM
same,18-HEPE,[1],2.0^* nM
same,19(20)-EpDPE,[1],88^† nM
same,"19,20-DiHDPE",[1],100 nM
same,20-HDHA,[1],25^* nM
same,20-HEPE,[1],5.9 nM
same,EKODE,[1],58 nM
same,PGD2,[1],9.6 nM
same,PGE1,[1],6.3 nM
same,PGE2,[1],110 nM
same,PGF1α,[1],3.7 nM
same,PGF2α,[1],40 nM
same,TXB2,[1],3.2^* nM
same,"5,6-DiHETE",[1],< 0.25 nM
same,5-iPF2α,[1],< 1.0 nM
same,8(9)-EpETE,[1],2.8^† nM
same,"12,13-DiHODE",[1],< 2.0 nM
same,"13,14-dihydro-15-keto-PGE1",[1],0.5 nM
same,20-HETE,[1],< 2.7 nM
same,PGD1,[1],< 0.50 nM
same,PGF2α,[1]; second listing of PGF2α (r9),40 nM
"O=c1cc(-c2ccc(O)cc2)oc2cc(O)cc(O)c12 [Apigenin, apigenin]","decreased PGE2 formation in comparison to the control, COX–1",ovine recombinant COX–1; 100 μM,31%
same,"inhibition, COX–1 enzyme assay",ovine recombinant COX–1; up to 100 μM,inhibition < 50%(up to 100 μM)
same,"1a,1b-dihomo-PGF2α",[1],1.3 nM
same,"4,5-DiHDPE",[1],15 nM
same,4-HDHA,[1],19 nM
same,5(6)-EpETrE,[1],130^* nM
same,"5,6-DiHETrE",[1],1.6^* nM
same,5-HEPE,[1],1.0 nM
same,5-HETE,[1],12 nM
same,5-oxo-ETE,[1],28 nM
same,6-keto-PGF1α,[1],55 nM
same,"7,8-DiHDPE",[1],1.6 nM
same,7-HDHA,[1],3.5 nM
same,8(9)-EpETrE,[1],32^† nM
same,"8,9-DiHETrE",[1],1.6 nM
same,8-HDHA,[1],20^† nM
same,8-HETE,[1],3.4 nM
same,8-iPF2a,[1],1.8 nM
same,9(10)-EpODE,[1],13 nM
same,9(10)-EpOME,[1],150 nM
same,9(10)-Epoxystearic acid,[1],77^* nM
same,"9,10,13-TriHOME",[1],4.8 nM
same,"9,10-DiHODE",[1],1.1 nM
same,"9,10-DiHOME",[1],15^† nM
same,"9,10-Dihydroxystearic acid",[1],57 nM
same,"9,12,13-TriHOME",[1],27 nM
same,9-HETE,[1],3.5 nM
same,9-HODE,[1],150 nM
same,9-HOTrE,[1],3.2 nM
same,9-oxo-ODE,[1],46 nM
same,10(11)-EpDPE,[1],82^‡ nM
same,"10,11-DiHDPE",[1],1.9 nM
same,10-HDHA,[1],3.6 nM
same,11(12)-EpETE,[1],4.4 nM
same,11(12)-EpETrE,[1],80^† nM
same,"11,12-DiHETrE",[1],2.1 nM
same,11-HDHA,[1],5.7 nM
same,11-HETE,[1],16 nM
same,12(13)-EpODE,[1],6.0 nM
same,12(13)-EpOME,[1],110 nM
same,"12,13-DiHOME",[1],32^* nM
same,12-HEPE,[1],1.1 nM
same,12-HETE,[1],10 nM
same,13(14)-EpDPE,[1],65^† nM
same,"13,14-DiHDPE",[1],3.0 nM
same,"13,14-dihydro-15-keto-PGF2α",[1],2.7 nM
same,13-HDHA,[1],6.9 nM
same,13-HODE,[1],120 nM
same,13-HOTrE,[1],3.3 nM
same,13-oxo-ODE,[1],8.5 nM
same,14(15)-EpETE,[1],5.4^‡ nM
same,14(15)-EpETrE,[1],60^† nM
same,"14,15-DiHETE",[1],0.7 nM
same,"14,15-DiHETrE",[1],5.9 nM
same,14-HDHA,[1],8.6 nM
same,15(16)-EpODE,[1],65 nM
same,15(S)-HETrE,[1],4.6 nM
same,"15,16-DiHODE",[1],13 nM
same,15-HETE,[1],22 nM
same,15-oxo-ETE,[1],8.2 nM
same,16(17)-EpDPE,[1],61^‡ nM
same,"16,17-DiHDPE",[1],8.2 nM
same,16-HDHA,[1],6.3 nM
same,17(18)-EpETE,[1],6.2^‡ nM
same,"17,18-DiHETE",[1],2.7 nM
same,17-HDHA,[1],17 nM
same,18-HEPE,[1],1.5 nM
same,19(20)-EpDPE,[1],92^‡ nM
same,"19,20-DiHDPE",[1],59 nM
same,20-HDHA,[1],18 nM
same,20-HEPE,[1],5.2 nM
same,EKODE,[1],40 nM
same,PGD2,[1],13 nM
same,PGE1,[1],4.7 nM
same,PGE2,[1],110 nM
same,PGF1α,[1],2.8 nM
same,PGF2α,[1],33 nM
same,TXB2,[1],2.0 nM
same,"5,6-DiHETE",[1],< 0.25 nM
same,5-iPF2α,[1],< 1.0 nM
same,8(9)-EpETE,[1],2.9^† nM
same,"12,13-DiHODE",[1],< 2.0 nM
same,"13,14-dihydro-15-keto-PGE1",[1],0.41 nM
same,20-HETE,[1],< 2.7 nM
same,PGD1,[1],< 0.50 nM
same,PGF2α,[1]; second listing of PGF2α (r9),33 nM
